In a melting point compilation (Tetko et al.; mined from patent text by program, amines drawn as free bases though some values may be those of a salt) one finds melting point data, which are given here for 86 compounds.

Some results are limits rather than exact numbers.

Turning to `Cc1nc(C)c(CC#N)cc1CC#N`, the melting point was in the range of 65 to 67 °C.

The compound `CNC(=O)Nc1ccc2c(c1)C(CN1CCC(n3ccc4cc(Cl)ccc43)CC1)CC2` (stereo unspecified) had a melting point of 193 to 195 °C.

On to `COC(=O)c1ccc(C2=N[C@H]3CCCC[C@H]3c3cc(OC)c(OC)cc32)cc1` (racemic), for which the melting point stood at 122 °C.

In the case of `CN(C)c1ccc(C(=O)CCCN2CCC(=C(c3ccccc3)c3ccccc3)CC2)cc1`, the melting point lay within 110 to 112 °C.

For the compound `COc1ccc(N)c(CCc2ccccn2)c1`, the melting point is 77.5 to 78.5 °C.

On to `Cc1cc(C(=O)N2Cc3cccn3Cc3ccccc32)ccc1C1=CC(C)(C)CC(C)(C)C1`, for which the melting point lay in the range of 118 to 120 °C.

For the compound `O=[N+]([O-])c1cnn(-c2c(Cl)cc(C(F)(F)F)cc2Cl)n1`, the melting point was 105 °C.

The compound `CCC12CCC3=C(CCc4cc(O)ccc43)C1CCC2O` (stereo unspecified) gave a melting point of 234 to 238 °C.

With `COc1cc2c(C)c(-c3ccccc3)sc2c(Cl)c1Cl`, the melting point was 138 °C.

Take `CCOC(=O)CSCc1nc(NCc2ccc(OC)c(Cl)c2)c2c3c(sc2n1)CCCC3`: the melting point was in the range of 158 to 160 °C.

`Cc1ccc2nc(C)c(=O)n(-c3ccc(Cl)cc3)c2c1` registered a melting point of 144 to 145 °C.

Compound `CC1(c2nc(-c3ccc(Cl)cc3)c(CCC(=O)O)o2)CCCCC1` returned a melting point of 138 to 139 °C.

Turning to `COc1ccc(CC2=NC(C)(C)CO2)cc1NC(=O)C(C)(C)CCCOc1cc(C)ccc1C`, the melting point fell in the range of 79 to 80 °C.

In the case of `CCN(C)c1nc2cc(NC(=O)OC(C)(C)C)ccn2n1`, the melting point lay within 181 to 183 °C.

In turn, `CC(=O)O[C@]1(C)CC[C@@H]2C[C@H]1OO[C@@]2(C)CS(=O)(=O)c1ccccc1` displayed a melting point of 98 to 99 °C.

`CCCCCCCCCCCCCCCCCC(=O)ON1C(C)(C)CC(OC(C)=O)CC1(C)C` registered a melting point of 55 to 58 °C.

`CSc1ccc2oc3cc(F)ccc3c(=O)c2c1` showed a melting point of 113 to 116 °C.

`COc1ccc(C(=O)Nc2ccc(COc3ccc4c(c3)CCC(CN(C)C)C4)cc2)cc1` (stereo unspecified) gave a melting point of 155 to 159 °C.

For the compound `COc1ccc(CC(=O)NC(NC(Cc2cccnc2C)=NC#N)C(C)(C)C)cc1OC` (stereo unspecified), the melting point lay in the range of 164 to 165 °C.

The compound `COc1cc2c(cc1OC)CN(CCCCc1ccc(NC(=O)c3nc4ccccc4nc3C)cc1)CC2` displayed a melting point of 146 °C.

`CCCCCCCCCCCCCCCCCNC(=O)O[C@@H]1CCCO[C@H]1COc1cc(CCCCO)on1` (relative stereo) came in with a melting point of 86 to 87 °C.

`COc1ccc(OCCO[N+](=O)[O-])c(C2NC(C(=O)O)CS2)c1` (stereo unspecified) came in with a melting point of 110 to 112 °C.

Consider `CCSc1ccc(Cl)c(C#N)n1`, for which the melting point was in the range of 46 to 48 °C.

The compound `COc1ccc(-c2c(Cl)ncn2-c2ccc(S(C)(=O)=O)cc2)c(F)c1` showed a melting point of 176 to 198 °C.

In turn, `Cc1cc2c(cc1C)C(C)(C)N(Cc1ccccc1)C2(C)C` came in with a melting point of 98 to 100 °C.

Regarding `CSc1nn2c(Cl)cc(C)nc2c1S(=O)(=O)c1ccc(C)cc1`, the melting point is 197 to 198 °C.

Consider `Cc1cc(C(=O)O)ccc1NC(=O)C(CS)Cc1ccccc1` (stereo unspecified), for which the melting point lay in the range of 217 to 218 °C.

Turning to `O=c1[nH]c2c(c3nc(-c4ccccc4Cl)nn13)CN(Cc1ccccc1)CC2`, the melting point was in the range of 295 to 296 °C.

The compound `O=C(Nc1cccc2[nH]ccc12)c1ccccc1OCCCNC1CCCCC1` gave a melting point of 148 °C.

For `CC(NC(=O)OCc1ccccc1)C(=O)N1CC(=O)N(CC(N)=O)C1(C)C` (stereo unspecified), the melting point fell in the range of 206 to 210 °C.

Compound `CC(=O)NCC(=O)N1CC1C#N` (stereo unspecified) registered a melting point of 102 to 104 °C.

On to `CN1CCN(c2c(F)cc3c(=O)c(C(=O)O)cn4c3c2N(C)CC4)CC1`, for which the melting point fell in the range of 266 to 269 °C.

The compound `COc1ccc(N2CCOCC2)c2sc(-c3ncc[nH]3)nc12` came in with a melting point of 228 to 230 °C.

As for `CCCCN=C(O)c1c(Cl)c(Sc2ccccc2)c(Sc2ccccc2)c(Cl)c1C(=O)O`, the melting point fell in the range of 215 to 216 °C.

As for `O=C1OCC2CCC1(c1ccc(Cl)cc1Cl)O2` (stereo unspecified), the melting point fell in the range of 136 to 137 °C.

With `OCC1CN(Cc2ccccc2)CCc2c1[nH]c1ccccc21` (stereo unspecified), the melting point turned out to be 95 °C.

For the compound `CC(C)OCC1(C(C)(F)F)c2cc(C#N)ccc2Nc2ncccc21` (stereo unspecified), the melting point lay in the range of 134 to 135 °C.

In turn, `CC(=O)c1ccc2c(c1)OCC(=O)N2` gave a melting point of 197 to 198 °C.

The compound `CC(=O)c1cnn(O)c1-c1ccc(C(=O)O)cc1C` had a melting point of over 250 °C.

Consider `COC(=O)c1nn(Cc2ccc(Br)cc2F)c(=O)c2ccc(F)cc12`, for which the melting point lay in the range of 131 to 134 °C.

`CCc1ccccc1-c1cn(C)cc(-c2cccc(C(F)(F)F)c2)c1=O` displayed a melting point of 123 to 125 °C.

On to `CNC(C(N)=O)c1cn(C2CCc3c(F)cc(F)cc3C2)c(=S)[nH]1` (stereo unspecified), for which the melting point lay within 212 to 213 °C.

`COc1ccc(-c2nc(Cn3ccnn3)cs2)cc1` had a melting point of 89 to 94 °C.

Compound `O=C(Nc1c([N+](=O)[O-])cc(F)c(Cl)c1F)C(F)(F)F` registered a melting point of 124 to 125 °C.

The compound `CC(=O)C(Cc1cccc(Br)c1)NC(=O)c1ccc(C)cc1` (stereo unspecified) registered a melting point of 106 to 107 °C.

Compound `CCCc1cc(C(=O)O)cc(CCC)c1OCCCCCCc1cccc(OC)c1OC` showed a melting point of 61 to 65 °C.

The compound `CSc1nn(-c2c(Cl)cc(Cl)cc2Cl)c(N(C)C)c1CC1C(=O)NC(=O)c2ccccc21` (stereo unspecified) returned a melting point of 186 to 187 °C.

As for `O=C(O)C(=O)Nc1ccc2c(=O)c3c(oc2c1)C(=Cc1ccc2c(c1)OCO2)CC3`, the melting point lay within 300 to 305 °C.

`CSc1nn(C(C)(C)C)c(=O)c(Cl)c1C1CCC(C(C)(C)C)CC1` (stereo unspecified) gave a melting point of 96 °C.

Compound `CC1(C)CCC(C)(C)c2c(OCc3ccc(C(F)(F)F)cc3)cc(C(O)C#Cc3ccc(C(=O)O)cc3)cc21` (stereo unspecified) came in with a melting point of 222 °C.

In turn, `CC(C)C(C)(C(N)=O)N1C(=O)c2ccccc2C1=O` (stereo unspecified) yielded a melting point of 118 to 119 °C.

Take `O=C1Nc2cc(Cl)ccc2Nc2ccsc21`: the melting point was in the range of 255 to 256 °C.

Regarding `COC(=O)C1Oc2ccccc2CC1CO` (stereo unspecified), the melting point lay in the range of 84 to 85 °C.

As to `CN(C)C(=S)SCC(c1cccc2ccccc12)[N+](=O)[O-]` (stereo unspecified), the melting point is 136 to 138 °C.

For `Cc1oc(-c2ccc(C(F)(F)F)cc2)nc1CCOc1ccc(CN(O)C(N)=O)cc1`, the melting point was in the range of 156 to 157 °C.

Compound `Cc1ccc(S(=O)(=O)N2C(C3=NOC(C)N3)CCC2c2ccc(F)cc2)cc1` (stereo unspecified) came in with a melting point of 68 °C.

`COc1ccc(CCNc2c(C)c(C)c3c(c2C)C(c2ccc(C(C)C)cc2)C(C)(C)O3)cc1` (stereo unspecified) returned a melting point of 63 to 65 °C.

With `c1ccc(COc2ccc(NC3=NN(c4ccccc4)CC3)cc2)cc1`, the melting point was in the range of 187 to 188 °C.

As to `CN1CCC(OC2c3ccccc3CCn3c2nc(I)c3C(N)=O)CC1` (stereo unspecified), the melting point is 85 °C.

`CCOC(=O)c1cn(Cc2c(F)cccc2F)c2cc(Br)c(CBr)cc2c1=O`: the melting point lay within 184 to 187 °C.

Compound `Cc1cn(Cc2ccccc2)c(=O)n(CC2(CO)CC2)c1=O` registered a melting point of 81.5 °C.

Turning to `NS(=O)(=O)c1ccc(-c2cnn(Cc3cc(F)c(F)cc3F)c(=O)c2-c2ccc(F)cc2)cc1`, the melting point fell in the range of 236 to 238 °C.

`O=C(O)COc1cccc2c1CCC(Cc1nc(C(c3ccccc3)c3ccccc3)co1)C2` (stereo unspecified) gave a melting point of 130 to 132 °C.

Consider `CCC(=O)N1c2cscc2C(=O)N(C)c2ccccc21`, for which the melting point lay within 202 to 203 °C.

`O=C(O)c1ccc(NC(O)C(=O)c2ccc(OCC3CCCCC3)cc2)cc1` (stereo unspecified) had a melting point of 188 to 190 °C.

Take `N[C@@H](Cc1ccc(N(CCCl)CCCl)cc1)C(=O)N[C@@H](Cc1cccc(C2CCCC2)c1)C(=O)O`: the melting point lay in the range of 80 to 90 °C.

Regarding `COc1ccc2c(c1)-c1n[nH]c(-c3ccncc3)c1CCC2`, the melting point was 200 to 201 °C.

`CSCc1nnc2n1-c1sc(Cl)cc1C(c1ccccc1Cl)=NC2` showed a melting point of 200 to 202 °C.

Consider `COc1cc(C(=O)NS(=O)(=O)c2ccccc2C)ccc1Cc1c(Cl)n(C)c2ccc(CC3CCN(C)C3=O)cc12` (stereo unspecified), for which the melting point is 129 to 133 °C.

In the case of `O=C(O)Cc1ccc(N2C(=O)C3CCCCC3C2=O)cc1` (stereo unspecified), the melting point was 219 to 221 °C.

Turning to `COc1ccc(S(=O)(=O)N2c3cc(Br)sc3-c3ccccc3[C@H]2C)cc1`, the melting point is 136 to 138 °C.

With `CCN1c2ncccc2C(=O)Nc2c(C)cc(-n3ccnc3)nc21`, the melting point was in the range of 243 to 245 °C.

`O=C(O)c1cccc(OCCCc2cc(-c3ccc(C(F)(F)F)cc3)no2)c1` came in with a melting point of 133 to 134 °C.

Compound `CC(=O)OCCCn1nc(-c2cc(C(C)(C)C)c(O)c(C(C)(C)C)c2)c2cccnc21` had a melting point of 75 to 77 °C.

In the case of `COc1ccc(C2=NOC(C)(c3nnc(S)n3N)C2)cc1OC1CCCC1` (stereo unspecified), the melting point was in the range of 228 to 229 °C.

With `CCC(=O)Nc1c(Cl)cc(Cl)c(-c2nsc(C(F)(F)F)c2Cl)c1Br`, the melting point was 156 °C.

In the case of `CC1(C)CCc2c(N3CCOCC3)nc3sc4c(NCc5ccncc5)ncnc4c3c2C1`, the melting point was 240 to 241 °C.

Compound `Cc1cc(C(F)(F)C(F)(F)F)ccc1NC(=O)c1cccc(I)c1C(=O)NC(C)(C)CS(C)(=O)=O` came in with a melting point of 143 to 144 °C.

`CCOC(=O)C(C)(C)OC(=O)c1cc(-n2c(=O)cc(C(F)(F)F)[nH]c2=O)ccc1Cl` gave a melting point of 176 to 177 °C.

With `COC(=O)c1ccc(=O)n(CCNC(=O)c2ccc(C)nc2)c1`, the melting point lay in the range of 184 to 185 °C.

The compound `C[C@H](C#Cc1sc(Cc2ccc(F)cc2)cc1Cl)N(O)C(N)=O` came in with a melting point of 131 to 132 °C.

`COC(=O)CCCc1cc2nc(Cl)ccc2n1S(=O)(=O)c1cc(F)cc(F)c1` registered a melting point of 90 °C.

`CN1CCN(CCCC2CCN(C(=O)N3c4ccccc4C(=O)Nc4cccnc43)CC2)CC1` showed a melting point of 213 to 214 °C.

As for `OCc1cccc(-c2ccc3nc(-c4ccc(Cl)cc4)cn3c2)c1F`, the melting point lay within 200 to 202 °C.

As to `CCC1=NC(=NOC(=O)NC)SC1(C)CC` (stereo unspecified), the melting point fell in the range of 88 to 90 °C.

In turn, `CC(C)n1c(=O)n(CC2CO2)c2cc(-c3ncc(C(F)(F)F)cc3Cl)ccc21` (stereo unspecified) registered a melting point of 110 to 111 °C.

What is called melting point is the temperature of the solid-liquid transition.
